The record followed here is US20190091259A1, “Selective Chemotherapy Treatments and Diagnostic Methods Related Thereto” (Emory University, priority 2014, published 2019).

In data set [1] the test system is H128. In words: In vitro cytotoxicity assay, cisplatin sensitivity, H128. Type of data set: cell-based. Particulars: H128 cell line; read-out: IC50 concentration.
The subject of data set [2] is H146. In words: In vitro cytotoxicity assay, cisplatin sensitivity, H146. It counts as cell-based. As to conditions: H146 cell line; read-out: IC50 concentration.
For data set [3], the system named is SCLC cell lines.
A short description of data set [4]: Veliparib pharmacokinetic and platinum adducts in tumor-bearing animals. It counts as in vivo. How it is done:
Treated animals were sacrificed either at 1 or 24 h posttreatment by cervical dislocation. Plasma and tumor samples were collected and immediately stored in liquid phase nitrogen or at −70° C. until ready for analysis. Tissues were homogenized in approximately 1 mL of PBS. Veliparib concentrations in plasma and tissue homogenates were quantitated by LC-MS. Concentrations of total platinum in plasma and tissue homogenate were quantitated by atomic absorption spectrophotometry (AAS).

The test system of data set [5] is H146 xenografts. Type of data set: in vivo.
For data set [6], the system named is PARylated proteins. In words: Level of PARylated proteins in treated cells. Type of data set: cell-based. As to conditions: veliparib 5 μmol/L.
Data set [7] deals with SCLC cell lines. As to the kind of experiment: Short-term MTS cytotoxicity assay in a panel of 9 SCLC cell lines. Particulars: for single-agent growth inhibition: veliparib 0-128 μmol/L, panel of 9 SCLC cell lines. Background: Formazan colour is commonly taken as a measure of viable cells.

With `N.N.[Cl][Pt][Cl]` [cisplatin], the values for the IC50 in data set [1] and in data set [2] were 14.5 µM and 5.2 µM, respectively.

On to `COc1cc([C@@H]2c3cc4c(cc3[C@@H](O[C@@H]3O[C@@H]5CO[C@@H](C)O[C@H]5[C@H](O)[C@H]3O)[C@H]3COC(=O)[C@H]23)OCO4)cc(OC)c1O` [etoposide], for which, in data set [3], the “correlation (CC) of the magnitude of potentiation by veliparib and the sensitivity of the cell line to the cytotoxic agent (single agent IC50)” value was found to be 0.24.

For the molecule `C[C@]1(c2nc3c(C(N)=O)cccc3[nH]2)CCCN1` [veliparib], the intratumoral platinum concentration result in data set [4] (in the presence of veliparib) is reported as “Increased intratumoral platinum concentration”. In data set [4] (tumor), the “intratumoral veliparib concentration sufficient for in vivo potentiation of the antitumor effect of cisplatin” value came out at 2 µmol/L. The “dose dependence of the potentiating effect of veliparib when combined with cisplatin” value in data set [5] (FIG. 2B) is “appeared dose dependent”. The “toxicity as indicated by the measured weight of the animals” value in data set [5] (veliparib combined with cisplatin) is listed as “without additive toxicity”. Also, the “level of PARylated proteins in cells” value in data set [6] is recorded as “significant reduction”. Besides, the figures for the single-agent growth inhibition result in data set [7] and in data set [7] (listed as Veliparib) were “limited single-agent activity” and “limited growth inhibition”, respectively. Further, the “potentiated the activity of cisplatin, carboplatin, and etoposide” value in data set [7] (veliparib 5 μmol/L) is “not”.
